According to ChEMBL document CHEMBL5723587, “Data for DCP probe BI-113823” (2024):
Active and inactive are the calls of the source.

What was measured:
[1] = molecular target: T1, B1 bradykinin receptor (Homo sapiens, UniProt P46663); assay: Radioligand binding assay (displacement of kallidin, hBDKRB1 ) at 10 µM ( Non-specific binding is estimated in the presence of 10 µM Des-Arg9- (Leu8)-Bradykinin. Membranes are filtered and washed, the filters are then counted to determine [3H]Kallidin[des-Arg10, Leu9] specifically bound.); design: compound concentration 10 uM
T1 sequence (P46663 whole entry): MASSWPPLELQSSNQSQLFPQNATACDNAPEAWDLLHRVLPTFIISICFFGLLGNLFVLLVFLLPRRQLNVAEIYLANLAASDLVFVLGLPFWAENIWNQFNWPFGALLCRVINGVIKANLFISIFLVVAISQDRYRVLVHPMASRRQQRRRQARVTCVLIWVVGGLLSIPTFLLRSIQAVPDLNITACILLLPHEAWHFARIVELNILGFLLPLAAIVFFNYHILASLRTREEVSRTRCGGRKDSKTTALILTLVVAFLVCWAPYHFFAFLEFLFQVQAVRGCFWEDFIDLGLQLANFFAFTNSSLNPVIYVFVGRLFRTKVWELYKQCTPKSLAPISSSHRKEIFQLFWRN

[2] = molecular target: B1 bradykinin receptor (Oryctolagus cuniculus, UniProt P48748); assay: Radioligand binding assay (displacement of kallidin, rabbit BDKRB1 ) at 10 µM ( Non-specific binding is estimated in the presence of 10 µM Des-Arg9- (Leu8)-Bradykinin. Membranes are filtered and washed, the filters are then counted to determine [3H]Kallidin[des-Arg10, Leu9] specifically bound.); design: compound concentration 10 uM
[3] = molecular target: B2 bradykinin receptor (Homo sapiens, UniProt P30411); assay: Radioligand binding assay (displacement of kallidin, human BDKRB2 ) at 10 µM ( Non-specific binding is estimated in the presence of 10 µM Des-Arg9- (Leu8)-Bradykinin. Membranes are filtered and washed, the filters are then counted to determine [3H]Kallidin[des-Arg10, Leu9] specifically bound.); design: compound concentration 10 uM
[4] = molecular target: T1, B1 bradykinin receptor; assay: Measurement of intracellular calcium in HEK-cells expressing hBDKRB1 at up to 1 µM ( The compound antagonizes the effects of the specific B1 agonist [Lys-des-Arg9 ]-Bradykinin (10 nM) in a concentration-dependent manner.); format: functional, cell-based; design: compound concentration < 1 uM
[5] = molecular target: 5-hydroxytryptamine receptor 1A (Homo sapiens) (UniProt P08908); assay: Activity against 5HT1A/HU in the Eurofins SafetyScreen44 (BI) by Radioactive Assay; conditions: Compound concentration 10.0 uM
[6] = molecular target: 5-hydroxytryptamine receptor 3A (Homo sapiens) (UniProt P46098); assay: Activity against 5HT3/HU in the Eurofins SafetyScreen44 (BI) by Others; conditions: Compound concentration 10.0 uM
[7] = molecular target: Alpha-1D adrenergic receptor (Homo sapiens) (UniProt P25100); assay: Activity against ALPHA1D/H in the Eurofins SafetyScreen44 (BI) by Others; conditions: Compound concentration 10.0 uM
[8] = molecular target: B2 bradykinin receptor (Homo sapiens) (UniProt P30411); assay: Activity against B2/HU in the Eurofins SafetyScreen44 (BI) by Radioactive Assay; conditions: Compound concentration 10.0 uM
[9] = organism: Rattus norvegicus; assay: Activity against CA+/DHPSI/RA in the Eurofins SafetyScreen44 (BI) by Radioactive Assay; conditions: Compound concentration 10.0 uM
[10] = molecular target: Cysteinyl leukotriene receptor 1 (Homo sapiens) (UniProt Q9Y271); assay: Activity against CYSLT1_HS in the Eurofins SafetyScreen44 (BI) by Radioactive Assay; conditions: Compound concentration 10.0 uM
[11] = molecular target: D(3) dopamine receptor (Homo sapiens) (UniProt P35462); assay: Activity against D3/HU in the Eurofins SafetyScreen44 (BI) by Radioactive Assay; conditions: Compound concentration 10.0 uM
[12] = molecular target: D(4) dopamine receptor (Homo sapiens) (UniProt P21917); assay: Activity against D4.2/H in the Eurofins SafetyScreen44 (BI) by Radioactive Assay; conditions: Compound concentration 10.0 uM
[13] = molecular target: Delta-type opioid receptor (Homo sapiens) (UniProt P41143); assay: Activity against DELTA/HU in the Eurofins SafetyScreen44 (BI) by Radioactive Assay; conditions: Compound concentration 10.0 uM
[14] = molecular target: Gamma-aminobutyric acid receptor subunit alpha-1 (Rattus norvegicus) (UniProt P62813); assay: Activity against GABAA MUSCIMOL CENT in the Eurofins SafetyScreen44 (BI) by Scintillation counting; conditions: Compound concentration 10.0 uM
[15] = molecular target: Sodium- and chloride-dependent GABA transporter 1 (Rattus norvegicus) (UniProt P23978); assay: Activity against GABATRANS/RA in the Eurofins SafetyScreen44 (BI) by Radioactive Assay; conditions: Compound concentration 10.0 uM
[16] = molecular target: Glucocorticoid receptor (Homo sapiens) (UniProt P04150); assay: Activity against GLUCOCORTICO in the Eurofins SafetyScreen44 (BI) by Radioactive Assay; conditions: Compound concentration 10.0 uM
[17] = molecular target: Histamine H1 receptor (Homo sapiens) (UniProt P35367); assay: Activity against H1/H in the Eurofins SafetyScreen44 (BI) by Radioactive Assay; conditions: Compound concentration 10.0 uM
[18] = molecular target: Histamine H3 receptor (Homo sapiens) (UniProt Q9Y5N1); assay: Activity against H3/H in the Eurofins SafetyScreen44 (BI) by Radioactive Assay; conditions: Compound concentration 10.0 uM
[19] = molecular target: Interleukin-1 receptor type 1 (Mus musculus) (UniProt P13504); assay: Activity against IL-1ALPHA/M in the Eurofins SafetyScreen44 (BI) by Others; conditions: Compound concentration 10.0 uM
[20] = molecular target: Kappa-type opioid receptor (Homo sapiens) (UniProt P41145); assay: Activity against KAPPA/HU in the Eurofins SafetyScreen44 (BI) by Radioactive Assay; conditions: Compound concentration 10.0 uM
[21] = molecular target: Muscarinic acetylcholine receptor M3 (Homo sapiens) (UniProt P20309); assay: Activity against M3/HU in the Eurofins SafetyScreen44 (BI) by Radioactive Assay; conditions: Compound concentration 10.0 uM
[22] = molecular target: Mu-type opioid receptor (Homo sapiens) (UniProt P35372); assay: Activity against MU/HU in the Eurofins SafetyScreen44 (BI) by Radioactive Assay; conditions: Compound concentration 10.0 uM
[23] = molecular target: Sodium-dependent noradrenaline transporter (Homo sapiens) (UniProt P23975); assay: Activity against NETRANS/H in the Eurofins SafetyScreen44 (BI) by Radioactive Assay; conditions: Compound concentration 10.0 uM
[24] = molecular target: Glutamate NMDA receptor (Rattus norvegicus) (UniProt P35439+Q00959+Q00960+Q00961+Q62645+Q8VHN2+Q9R1M7); assay: Agonist activity in the Eurofins SafetyScreen44 (BI) against NMDAAGSI/RA by Radioactive Assay; format: protein-complex assay; conditions: Compound concentration 10.0 uM
[25] = molecular target: P2Y purinoceptor 1 (Rattus norvegicus) (UniProt P49651); assay: Activity against P2Y/RAT in the Eurofins SafetyScreen44 (BI) by Radioactive Assay; conditions: Compound concentration 10.0 uM
[26] = molecular target: 3',5'-cyclic-AMP phosphodiesterase 4A (Rattus norvegicus) (UniProt P54748); assay: Activity against ROLIPRAM/R in the Eurofins SafetyScreen44 (BI) by Radioligand Binding; conditions: Compound concentration 10.0 uM
[27] = molecular target: Sigma non-opioid intracellular receptor 1 (Homo sapiens) (UniProt Q99720); assay: Activity against SIGMA1/HU in the Eurofins SafetyScreen44 (BI) by Radioactive Assay; conditions: Compound concentration 10.0 uM
[28] = molecular target: Thyroid hormone receptor alpha (Rattus norvegicus) (UniProt P63059); assay: Activity against THYROID HORM in the Eurofins SafetyScreen44 (BI) by Radioactive Assay; conditions: Homo sapiens; Compound concentration 10.0 uM
[29] = molecular target: Neuropeptide Y receptor type 2 (Homo sapiens) (UniProt P49146); assay: Activity against Y2/HU in the Eurofins SafetyScreen44 (BI) by Radioactive Assay; conditions: Compound concentration 10.0 uM
Neuropeptide Y receptor type 2 (Homo sapiens), sequence (P49146 whole entry): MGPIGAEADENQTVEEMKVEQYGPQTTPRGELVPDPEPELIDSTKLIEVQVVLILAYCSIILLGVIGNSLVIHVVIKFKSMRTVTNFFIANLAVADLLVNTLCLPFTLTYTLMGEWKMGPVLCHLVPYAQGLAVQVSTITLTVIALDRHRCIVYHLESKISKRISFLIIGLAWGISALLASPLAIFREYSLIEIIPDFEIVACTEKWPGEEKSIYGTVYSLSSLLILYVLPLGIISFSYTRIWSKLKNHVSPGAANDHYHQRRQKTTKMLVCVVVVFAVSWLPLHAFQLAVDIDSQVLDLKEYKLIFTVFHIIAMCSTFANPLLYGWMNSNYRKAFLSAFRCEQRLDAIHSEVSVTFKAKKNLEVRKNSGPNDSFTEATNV

P2Y purinoceptor 1 (Rattus norvegicus), sequence (P49651 whole entry): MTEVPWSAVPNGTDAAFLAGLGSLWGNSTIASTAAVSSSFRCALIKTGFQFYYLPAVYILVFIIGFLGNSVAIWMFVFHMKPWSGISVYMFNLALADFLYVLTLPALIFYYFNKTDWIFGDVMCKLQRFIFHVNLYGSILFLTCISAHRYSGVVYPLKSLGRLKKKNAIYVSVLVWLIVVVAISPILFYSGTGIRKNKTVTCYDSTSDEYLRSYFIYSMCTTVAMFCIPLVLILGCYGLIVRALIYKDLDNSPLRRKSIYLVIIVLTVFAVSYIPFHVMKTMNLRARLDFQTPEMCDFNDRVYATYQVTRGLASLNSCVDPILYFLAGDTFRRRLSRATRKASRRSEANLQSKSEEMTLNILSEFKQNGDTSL
5-hydroxytryptamine receptor 3A (Homo sapiens), sequence (P46098 whole entry): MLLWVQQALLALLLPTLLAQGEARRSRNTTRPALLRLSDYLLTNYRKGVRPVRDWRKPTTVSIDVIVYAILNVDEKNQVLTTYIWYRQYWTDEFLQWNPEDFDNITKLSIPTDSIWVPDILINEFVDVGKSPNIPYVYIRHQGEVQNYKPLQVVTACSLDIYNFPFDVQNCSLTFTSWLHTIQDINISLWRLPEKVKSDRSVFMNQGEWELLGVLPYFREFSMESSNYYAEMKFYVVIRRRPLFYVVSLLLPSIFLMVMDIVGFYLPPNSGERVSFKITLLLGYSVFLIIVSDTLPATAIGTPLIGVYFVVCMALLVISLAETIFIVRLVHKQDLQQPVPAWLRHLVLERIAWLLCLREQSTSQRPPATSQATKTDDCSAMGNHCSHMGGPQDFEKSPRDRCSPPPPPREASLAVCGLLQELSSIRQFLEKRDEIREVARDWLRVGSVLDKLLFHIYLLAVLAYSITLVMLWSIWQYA
Kappa-type opioid receptor (Homo sapiens), sequence (P41145 whole entry): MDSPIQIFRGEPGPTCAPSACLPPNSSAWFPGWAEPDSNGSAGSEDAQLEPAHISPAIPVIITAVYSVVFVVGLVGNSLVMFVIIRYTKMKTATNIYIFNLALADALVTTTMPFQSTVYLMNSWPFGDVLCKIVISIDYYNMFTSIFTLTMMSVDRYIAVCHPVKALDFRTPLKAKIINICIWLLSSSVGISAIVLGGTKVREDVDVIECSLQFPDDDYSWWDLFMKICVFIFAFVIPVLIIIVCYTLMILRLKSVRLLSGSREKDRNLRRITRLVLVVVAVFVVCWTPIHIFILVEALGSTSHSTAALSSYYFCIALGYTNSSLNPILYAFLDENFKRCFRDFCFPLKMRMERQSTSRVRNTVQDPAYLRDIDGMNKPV
Muscarinic acetylcholine receptor M3 (Homo sapiens), sequence (P20309 whole entry, looked up): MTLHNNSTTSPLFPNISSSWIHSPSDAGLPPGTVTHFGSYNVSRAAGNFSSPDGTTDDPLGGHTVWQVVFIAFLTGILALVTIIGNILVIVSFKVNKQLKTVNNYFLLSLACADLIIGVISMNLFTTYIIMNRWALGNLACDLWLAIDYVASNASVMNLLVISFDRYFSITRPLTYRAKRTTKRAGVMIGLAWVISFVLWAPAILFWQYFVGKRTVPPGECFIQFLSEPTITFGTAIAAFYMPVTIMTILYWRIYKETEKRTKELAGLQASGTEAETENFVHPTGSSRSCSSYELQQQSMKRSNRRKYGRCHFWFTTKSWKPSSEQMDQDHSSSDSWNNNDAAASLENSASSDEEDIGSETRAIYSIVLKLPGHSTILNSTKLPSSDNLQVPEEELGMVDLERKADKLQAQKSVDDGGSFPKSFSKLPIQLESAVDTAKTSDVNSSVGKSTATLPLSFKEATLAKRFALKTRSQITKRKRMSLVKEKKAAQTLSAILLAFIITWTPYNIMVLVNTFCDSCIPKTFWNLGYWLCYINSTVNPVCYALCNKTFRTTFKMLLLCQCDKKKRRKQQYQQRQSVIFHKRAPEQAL
Sigma non-opioid intracellular receptor 1 (Homo sapiens), sequence (Q99720 whole entry): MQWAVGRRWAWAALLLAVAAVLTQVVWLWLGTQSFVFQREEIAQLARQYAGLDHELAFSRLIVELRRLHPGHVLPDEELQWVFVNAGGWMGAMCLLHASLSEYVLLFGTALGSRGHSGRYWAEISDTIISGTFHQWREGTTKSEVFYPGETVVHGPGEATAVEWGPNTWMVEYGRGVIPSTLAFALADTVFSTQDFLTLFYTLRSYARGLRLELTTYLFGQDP
B2 bradykinin receptor (Homo sapiens), sequence (P30411 whole entry): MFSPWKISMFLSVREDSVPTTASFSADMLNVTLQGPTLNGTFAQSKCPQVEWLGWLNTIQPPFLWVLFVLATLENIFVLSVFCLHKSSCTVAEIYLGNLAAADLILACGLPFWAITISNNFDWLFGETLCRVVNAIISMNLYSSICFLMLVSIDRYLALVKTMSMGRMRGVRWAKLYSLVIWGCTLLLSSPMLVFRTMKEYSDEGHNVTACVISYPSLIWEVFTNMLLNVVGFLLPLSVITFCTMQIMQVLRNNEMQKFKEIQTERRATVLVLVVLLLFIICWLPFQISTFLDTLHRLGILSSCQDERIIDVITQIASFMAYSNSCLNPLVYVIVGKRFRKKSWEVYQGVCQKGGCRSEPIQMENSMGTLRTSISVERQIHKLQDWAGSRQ
B2 bradykinin receptor, sequence (P30411 whole entry): as above
D(3) dopamine receptor (Homo sapiens), sequence (P35462 whole entry): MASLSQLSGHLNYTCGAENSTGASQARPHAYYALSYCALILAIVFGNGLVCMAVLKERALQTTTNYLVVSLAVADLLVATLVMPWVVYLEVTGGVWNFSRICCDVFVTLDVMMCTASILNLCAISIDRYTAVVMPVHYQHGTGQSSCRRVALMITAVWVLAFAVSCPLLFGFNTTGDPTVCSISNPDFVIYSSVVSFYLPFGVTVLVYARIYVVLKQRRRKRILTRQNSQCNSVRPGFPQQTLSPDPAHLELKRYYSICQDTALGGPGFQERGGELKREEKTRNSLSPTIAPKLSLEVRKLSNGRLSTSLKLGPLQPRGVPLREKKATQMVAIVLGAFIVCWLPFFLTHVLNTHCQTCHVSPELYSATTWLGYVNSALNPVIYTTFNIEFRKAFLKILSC
D(4) dopamine receptor (Homo sapiens), sequence (P21917 whole entry): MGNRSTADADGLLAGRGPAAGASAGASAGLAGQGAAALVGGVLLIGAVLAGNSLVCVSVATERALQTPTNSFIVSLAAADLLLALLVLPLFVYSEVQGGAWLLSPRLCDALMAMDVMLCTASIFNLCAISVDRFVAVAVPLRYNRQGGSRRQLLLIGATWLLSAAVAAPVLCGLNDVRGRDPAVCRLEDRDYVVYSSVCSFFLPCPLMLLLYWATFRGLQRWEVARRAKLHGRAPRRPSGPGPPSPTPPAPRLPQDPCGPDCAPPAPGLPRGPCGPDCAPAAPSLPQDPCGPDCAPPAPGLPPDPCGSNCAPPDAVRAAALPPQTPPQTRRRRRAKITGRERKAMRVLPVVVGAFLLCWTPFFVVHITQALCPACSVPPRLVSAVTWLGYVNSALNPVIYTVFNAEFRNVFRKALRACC
5-hydroxytryptamine receptor 1A (Homo sapiens), sequence (P08908 whole entry): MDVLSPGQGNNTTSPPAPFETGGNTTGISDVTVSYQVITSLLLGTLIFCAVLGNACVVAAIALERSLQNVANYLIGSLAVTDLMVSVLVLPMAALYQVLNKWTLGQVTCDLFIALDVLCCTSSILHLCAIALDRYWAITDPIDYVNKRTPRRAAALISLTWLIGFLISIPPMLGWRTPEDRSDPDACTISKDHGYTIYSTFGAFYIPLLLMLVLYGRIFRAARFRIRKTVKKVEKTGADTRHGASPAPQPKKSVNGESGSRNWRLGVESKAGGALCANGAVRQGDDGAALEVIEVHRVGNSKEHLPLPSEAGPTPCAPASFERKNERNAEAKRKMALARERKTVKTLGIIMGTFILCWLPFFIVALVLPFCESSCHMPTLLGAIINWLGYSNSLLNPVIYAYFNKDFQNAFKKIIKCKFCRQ
Delta-type opioid receptor (Homo sapiens), sequence (P41143 whole entry): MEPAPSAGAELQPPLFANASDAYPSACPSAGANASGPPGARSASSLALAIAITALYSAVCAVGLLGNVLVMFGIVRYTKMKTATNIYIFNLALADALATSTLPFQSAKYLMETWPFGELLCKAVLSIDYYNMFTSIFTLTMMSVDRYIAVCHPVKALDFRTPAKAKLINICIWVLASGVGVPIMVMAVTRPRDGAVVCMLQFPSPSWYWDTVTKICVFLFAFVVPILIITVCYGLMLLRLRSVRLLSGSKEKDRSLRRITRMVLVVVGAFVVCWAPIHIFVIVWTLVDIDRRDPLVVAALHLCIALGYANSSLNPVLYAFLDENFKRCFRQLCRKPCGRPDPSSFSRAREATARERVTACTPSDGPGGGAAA
Histamine H3 receptor (Homo sapiens), sequence (Q9Y5N1 whole entry): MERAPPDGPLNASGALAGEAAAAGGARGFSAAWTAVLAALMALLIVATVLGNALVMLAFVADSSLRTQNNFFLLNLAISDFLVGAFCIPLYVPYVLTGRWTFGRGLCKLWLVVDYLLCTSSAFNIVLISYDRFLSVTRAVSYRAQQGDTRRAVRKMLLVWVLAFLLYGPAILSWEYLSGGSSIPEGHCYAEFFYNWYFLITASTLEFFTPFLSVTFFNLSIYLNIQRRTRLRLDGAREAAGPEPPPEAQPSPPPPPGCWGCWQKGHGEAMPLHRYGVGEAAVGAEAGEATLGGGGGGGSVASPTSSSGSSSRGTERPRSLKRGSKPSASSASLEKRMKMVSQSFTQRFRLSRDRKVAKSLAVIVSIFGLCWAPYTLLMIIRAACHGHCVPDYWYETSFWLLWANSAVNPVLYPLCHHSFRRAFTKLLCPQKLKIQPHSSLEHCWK

COc1cc(C)c(S(=O)(=O)N(C)CCOCC(=O)N(C)[C@H]2CCC[C@@H](N3CCN(C)CC3)C2)c(C)c1
active: Ki [1] 5.3 nM | Ki [2] 15.3 nM | IC50 [4] 7 nM | residual activity [27] 30%
inactive: residual activity [5] 99% | residual activity [6] 91% | residual activity [7] 96% | residual activity [8] 108% | residual activity [9] 94% | residual activity [10] 95% | residual activity [11] 86% | residual activity [12] 101% | residual activity [13] 86% | residual activity [14] 101% | residual activity [15] 119% | residual activity [16] 103% | residual activity [17] 85% | residual activity [18] 77% | residual activity [19] 79% | residual activity [20] 99% | residual activity [21] 84% | residual activity [22] 91% | residual activity [23] 114% | residual activity [24] 92% | residual activity [25] 108% | residual activity [26] 84% | residual activity [28] 84% | residual activity [29] 111%
> 10 µM (not active): Ki [3]
